# From US20250368629A1, “FLAVONOID COMPOUNDS AND METHODS AND MATERIALS FOR USING FLAVONOID COMPOUNDS TO TREAT FIBROTIC CONDITIONS” (Mayo Foundation for Medical Education and Research, priority 2022, published 2025)
# Tests used:
# [1] = system: senescent human adult lung fibroblasts; assay: Apoptosis of senescent lung fibroblasts (cleaved caspase-3, DAPI); format: cell-based; conditions: Fibroblast; replicatively senescent human adult lung fibroblasts, 96 hours, 6-point dose-response, N=3
# Procedure: (§1) Human adult lung fibroblasts were replicatively passaged until senescence (confirmed by RNA and senescence associated beta galactosidase staining). In a parallel experiment, low passage proliferating fibroblasts from the same donor were compared. Cells were plated into 96-well plates and treated with the indicated compound (6-point dose-response) and incubated for 96 hours. Cells were then fixed using 4% PFA, permeabilized using 0.25% triton x-100, and nuclear stained using a primary antibody for cleaved caspase-3, secondary fluorescence conjugated antibody, and DAPI. Cells were then imaged using a 4× objective on a Cytation5 microscope and cell counts were quantified using automated software (Biotek Gen5). Data shown are the EC50 values calculated for each compounds efficacy to induce apoptosis in senescence vs. proliferating lung fibroblasts, from the calculated dose-response curves, N=3 independent experiments.
# [2] = system: low passage proliferating fibroblasts; assay: Apoptosis of low passage proliferating lung fibroblasts (cleaved caspase-3, DAPI); format: cell-based, human; conditions: low passage proliferating fibroblasts from the same donor, 96 hours, 6-point dose-response, N=3
# Procedure: as §1
# STK17B = molecular target: T1, STK17B (Homo sapiens, UniProt O94768); assay: Kinase dose response curve on STK17B; format: biochemical; conditions: FIG. 4A, read-out: half maximal inhibitory concentration (IC50) on STK17B
# T1 construct: purchased Reaction Biology
# T1 sequence (O94768 1-372): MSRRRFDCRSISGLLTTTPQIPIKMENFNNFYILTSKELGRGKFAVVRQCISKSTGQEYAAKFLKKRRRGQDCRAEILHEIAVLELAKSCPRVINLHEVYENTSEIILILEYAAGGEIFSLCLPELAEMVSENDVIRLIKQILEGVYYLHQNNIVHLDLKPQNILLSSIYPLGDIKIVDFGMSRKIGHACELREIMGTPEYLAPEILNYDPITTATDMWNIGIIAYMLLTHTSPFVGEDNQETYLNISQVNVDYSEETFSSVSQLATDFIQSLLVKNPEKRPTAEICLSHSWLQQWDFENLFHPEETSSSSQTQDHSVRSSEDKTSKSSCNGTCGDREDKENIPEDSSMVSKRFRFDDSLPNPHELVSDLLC
# Procedure: FIGS. 4A-4B show mechanism of action of F-4N. […] Dose response curves on STK17A and STK17B show half maximal inhibitory concentration (IC50) values of ˜200 nM. […] FIG. 4A. F-4N was sent to Reaction Biology to be tested against their entire wild-type kinase panel. 1 μM F-4N was tested in an ATP competition assay against 420+ kinases. Z-scores were calculated to identify true hits over noise.
# ~400 kinases = assay: Kinome screen (Reaction Biology wild-type kinase panel, ATP competition assay); format: biochemical; conditions: 1 μM, Z-scores
# Procedure: FIG. 4A. F-4N was sent to Reaction Biology to be tested against their entire wild-type kinase panel. 1 μM F-4N was tested in an ATP competition assay against 420+ kinases. Z-scores were calculated to identify true hits over noise.
# Kinome screening was used to test F-4N (1 μM) against ˜400 kinases.
# DRAK1 = molecular target: T2, DRAK1 (Homo sapiens, UniProt Q9UEE5); assay: DRAK1 kinase activity assay (radiolabeled ATP, Reaction Biology); format: biochemical; conditions: FIG. 30
# T2 construct: purchased Reaction Biology
# T2 sequence (Q9UEE5 1-414): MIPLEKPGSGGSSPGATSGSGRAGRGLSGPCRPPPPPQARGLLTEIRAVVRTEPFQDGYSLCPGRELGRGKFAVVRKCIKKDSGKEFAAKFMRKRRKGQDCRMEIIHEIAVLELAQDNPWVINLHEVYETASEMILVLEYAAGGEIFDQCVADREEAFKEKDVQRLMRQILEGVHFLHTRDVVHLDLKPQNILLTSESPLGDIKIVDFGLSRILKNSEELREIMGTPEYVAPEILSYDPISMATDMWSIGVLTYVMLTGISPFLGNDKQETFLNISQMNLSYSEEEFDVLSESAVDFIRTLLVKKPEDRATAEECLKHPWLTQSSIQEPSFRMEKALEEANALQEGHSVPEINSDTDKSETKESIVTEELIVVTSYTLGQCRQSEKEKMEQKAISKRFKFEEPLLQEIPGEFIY
# Procedure: DRAK1 kinase activity was also assessed. […] A DRAK1 kinase activity was performed by Reaction Biology. DRAK1 kinase activity was measured and plotted (FIG. 30).
# [3] = system: mice with intratracheal bleomycin injury; assay: Acute exposure bleomycin dose-finding study; format: in vivo, mouse
# Procedure: On day 1 mice received intratracheal sham or bleomycin injury. On day 7 mice were divided into groups and treated daily with vehicle, 10, 30, or 100 mg/kg F-4N by oral gavage for 7 days. On day 14 organs and plasma were collected. Weight changes were measured throughout the experiment (FIG. 24B). Whole lung RNA expression of profibrotic genes as also examined (FIG. 24C). […] F-4N efficacy biomarkers were identified. RNA was collected from vehicle treated mice and from mice treated with 30 mg/kg F-4N. RNA was analyzed using the RT2 Profiler PCR array (Qiagen Catalog No.—330231) which measures expression of 89 different cytokines and chemokines. […] A level of genes whose expression is altered in response to F-4N can be used as a biomarker for F-4N efficacy.
# [4] = system: sections of lung tissue from IPF patient transplant lungs; assay: IPF patient-derived organotypic ex vivo culture; format: cell-based, human; conditions: 3 μM, 4 days ex vivo, N=3 patient samples
# Procedure: An IPF patient-derived organotypic ex vivo culture was used to determine efficacy of F-4N. Sections of lung tissue (about […]) were cut from IPF patient transplant lungs and cultured for 4 days ex vivo with DMSO (0.1%) or F-4N (3 μM). Lung tissue slices were collected, RNA was isolated, and qPCR analysis was performed (FIG. 31). Media was also collected for ELISA analysis for IL-6 (FIG. 31B). N=3 patient samples.
# [5] = 30 and 100 mg/kg daily oral gavage, 7 days
smiles,measurement,setting,value
O=c1c(O)c(-c2ccc(OCc3ccncc3)cc2)oc2ccccc12 [F—4N],EC50,[1],800 nM
same,Proliferating fibroblast apoptosis EC50,[2],inactive
same,IC50,STK17B,~200 nM
same,Putative targets identified by kinome screening,~400 kinases,"STK17A (also known as DRAK1), STK17B (also known as DRAK2), and MYLK4, AURKB, FLT3, and KIT"
same,DRAK1 kinase activity,DRAK1,can inhibit
same,number of genes with reduced expression (RT2 Profiler PCR array of 89 cytokines and chemokines),"[3]; 30 mg/kg, after 7 days of treatment",11 genes
same,weight change,[3]; [5],improved weight change
same,whole lung RNA expression of profibrotic genes,[3]; [5],reduced expression
same,expression of fibrotic markers (qPCR),[4],reduced expression
same,expression of mature alveolar epithelial cell markers (qPCR),[4],enhanced expression
